US20160113911A1, “METHODS AND COMPOSITIONS FOR THE TREATMENT OF CANCER” (THE GENERAL HOSPITAL CORPORATION, priority 2013, published 2016)

Experiments:
RPE cells [1] = test: Apoptosis by annexin V staining; type: cell-based, human; details: RPE CTRL and KDM4A overexpressing cells
KDM4A = KDM4A protein levels by western blot; type: cell-based, human; details: RPE cells
Protocol: Western blot analyses were performed according to (Black et al., 2010).
Western blots were performed as in (Black et al., 2010). Briefly, adherent cells were either scraped directly into PBS, or washed with PBS, trypsinized and collected by centrifuging at 2,000 RPM for 5 minutes. For preparation of whole-cell lysates, cell pellets were washed once in ice-cold PBS and resuspended in RIPA lysis buffer [50 mM Tris pH 7.4, 150 mM NaCl, 0.25% Sodium Deoxycholate, 1% NP40, 1 mM EDTA, 10% Glycerol] supplemented with complete protease inhibitor and PhosSTOP™ phosphatase inhibitor cocktails (Roche). Cells were lysed on ice for 15 minutes and immediately frozen at −80° C. for 10 min. Lysates were subsequently sonicated at 70% amplitude for 15 minutes in a QSonica Q800R™ and cleared of cell debris by centrifuging at 12,000 RPM for 15 minutes, before being analyzed by western blotting. For HIF1α expression, adherent cells were washed twice with ice-cold PBS and scraped directly in warmed 1× Laemmli buffer. Samples were sonicated at 70% amplitude for 15 minutes and boiled immediately prior to western blotting.

RPE cells [2] = test: Flow cytometry cell cycle analysis; type: cell-based, human
Protocol: Asynchronously growing, or G1/S arrested cells were prepared and fixed as in (Black et al., 2010). Cells were stained with 10 μM EdU for 1 hour prior to collection. Cell cycle was analyzed by PI staining or EdU incorporation using Click-IT EdU™ Flow Cytometry Assay Kit (Life Technologies). Flow cytometry of CD4+ T cells and cell cycle distribution were analyzed using a BD FACS ARIA II™.

[3] = tested on: 1q12h copy gain in RPE cells; test: FISH for site-specific copy gain; type: cell-based, human; details: RPE cells
Protocol: FISH was performed as described in (Manning et al., 2010). Probes for 1q12h, 1q telomere, and chromosome 2, 6, 8, and X alpha satellite were purchased from Rainbow Scientific. Probes for 1q12 (RP11-80L2), Xq13.2 (RP11-451A22), Xq13.1 (RP11-177A4) were purchased as BAC clones from Children's Hospital Oakland Research Institute (CHORI BacPac) FISH verified clone repository. Oligonucleotide probes for 1q21.2 (BCL9) and 1q23.3 were purchased from Agilent (SureFISH). BACS were prepared utilizing PureLink HiPure Plasmid Filter Maxiprep kit (Life Technologies) using the recommended modified wash buffer. Probes were nick translated (Abbot Molecular Kit) in the presence of fluorescently labeled dTTP (Enzo Life Science). Images of multiple planes of fields of nuclei were acquired on an Olympus IX81 Spinning Disk Microscope and analyzed using Slidebook 5.0 software. We used a conservative scoring metric for copy gain. Any foci that were touching were scored as a single foci to prevent increased numbers due to normally replicated foci. For RPE cells, copy gain was scored as any cell with 3 or more distinct foci. For 293T cells, copy gain was scored for any cell with 5 or more distinct foci. For RPE cells each experiment includes at least one replicate from the two different polyclonal stable cell preparations. At least 100 cells for each replicate were scored for all experiments except analysis of single cell clones.
Cells were plated onto culture dishes and allowed to adhere for 20-24 hrs in normoxia (5% CO2, 21% O2, and 74% N2). For hypoxic treatment, cells were maintained in a HERA Cell 150™ incubator (Thermo Scientific) flushed with 5% CO2, 1% O2 or 4% O2, and balanced with N2 for the duration of the experiment. Incubator calibrations were carried out by Bianchi Associates Calibrations/Verifications.
To release, cells were washed twice with culture medium pre-conditioned in normoxia or hypoxia, and supplied with fresh pre-conditioned media. For JIB-04 treatment, normoxic cells were pre-treated with 62.5 nM JIB-04 (Xcessbio) for 24 hrs, then treated again with JIB-04 and either transferred to 1% O2 or maintained in normoxia for an additional 24 hrs. Succinate was administered at a final concentration of 2 mM and cells were either maintained in normoxia for 72 hrs or maintained in normoxia for 48 hrs prior to being transferred to 1% O2 for 24 hrs.
FISH was performed as described in (Black et al., 2013; Manning et al., 2010). Probes for 1q12h, 1q telomere, chromosome 8 centromere (alpha satellite), and X centromere (alpha satellite) were purchased from Rainbow Scientific. Probes for Xq13.1 (RP11-177A4), Zebrafish BCL9 (CH73-15J19) and Zebrafish IGBP1 (CH73-223D24) were purchased as BAC clones from Children's Hospital Oakland Research Institute (CHORI BacPac) clone repository. Probes for 1q21.2 (BCL9) and 1q23.3 were purchased from Agilent (SureFISH).
FISH was performed as described in (Black et al., 2013; Manning et al., 2010). Probes for 1q12h, 1q telomere, chromosome 8 centromere (alpha satellite), and X centromere (alpha satellite) were purchased from Rainbow Scientific. Probes for Xq13.1 (RP11-177A4), Zebrafish BCL9 (CH73-15J19) and Zebrafish IGBP1 (CH73-223D24) were purchased as BAC clones from Children's Hospital Oakland Research Institute (CHORI BacPac) clone repository. Probes for 1q21.2 (BCL9) and 1q23.3 were purchased from Agilent (SureFISH). BACS were prepared utilizing PureLink HiPure™ Plasmid Filter Maxiprep kit (Life Technologies) using the recommended modified wash buffer. Probes were nick translated (Abbot Molecular Kit) in the presence of fluorescently labeled dTTP (Enzo Life Science). Images of multiple planes of fields of nuclei were acquired on an Olympus IX81 T Spinning Disk Microscope and analyzed using Slidebook™ 5.0 software. A conservative scoring metric was used for copy gain. Any foci that were touching were scored as a single copy to prevent increased numbers due to normally replicated foci.

p53 = p53 stabilization and p53 target gene induction after DNA damage; type: cell-based, human; details: RPE GFP-CTRL and GFP-KDM4A cells; 1 uM for 16 hrs
Protocol: Western blots were performed as in (Black et al., 2010). Antibodies used were: KDM4A (Neuro mAB, 75-189), β-actin (Millipore), GFP (Neuro mAB, 73-131), RFP (Abcam, ab62341), p53 (Santa Cruz, sc-126), MCM2 (Cell Signaling, #3619S), MCM3 (Cell Signaling, #4012S), MCM7 (Cell Signaling, #3735S), Halo (Promega), Actinin (Santa Cruz, sc-17829), HA 12CA5 (Roche), FLAG M2 (Sigma), DNA Pol α (Abcam, ab31777).

HEK 293T cells [4] = test: MTT proliferation and viability assay; type: cell-based, human; details: shRNA 4A.10 or 4A.06, 48h
Protocol: For tissue culture and generation of stable cell lines see (Black et al., 2010). Rapamycin (LC Laboratories) and AZD8055 (Selleckchem) were used at indicated concentrations. […] JIB-04 (Xcessbio) was used at a final concentration of 250 nM. For the translation assays, DMEM depleted of Methionine and Cysteine (Life Technologies 21013-024) was used.
MTT assays were performed following supplier's instructions from the Cell Proliferation Kit I™ (MTT) from Roche. Briefly, 1×10^4 cells were seeded per well of a 96 well plate and grown for 24h before treatment. Forty-eight hours later, cells were assayed.

HEK 293T cells [5] = test: Monitored cell proliferation assay (xCELLigence growth curves, doubling time); type: cell-based, human
Protocol: Seventy two hours post transfection 1×10^4 HEK 293T cells were seeded per well of a 96 well plate, and then treated after 24h. Cell proliferation was monitored with an xCELLigence system (Roche) (Vistejnova et al., 2009).

H3K36me3 = test: H3K36 demethylase activity of KDM4A variants in transfected cells (immunofluorescence); type: cell-based; details: U2OS cells transfected with GFP-KDM4A

For NC(=O)NO [HU, hydroxyurea], the “apoptosis (percent Annexin V positive cells)” value (RPE cells [1]) was “no observed increased apoptosis”.

With Tunicamycin the “KDM4A protein levels under stress” value (KDM4A; 24 hours) was “significantly increased KDM4A levels”, the “cell cycle profile under stress” value (RPE cells [2]; 24 hours) was “resulted in altered cell cycle profiles” and the “site-specific copy gain (1q12h and 1q21.2) under stress” value ([3]; 24 hours, 2 μg/ml Tunicamycin) was “did not promote site-specific copy gain”.

In the case of O=C(O)CCC(=O)O [succinate, reference compound], the “KDM4A protein levels in hypoxia” value (KDM4A; 1% O2) is reported as “did not alter KDM4A stabilization”, the cell cycle profile (RPE cells [2]; normoxia and hypoxia) is reported as “did not alter KDM4A stabilization or cell cycle progression” and the “hypoxia-dependent copy gain of 1q12h” value ([3]; 1% O2 24 hours, JIB-04 62.5 nM or 2 mM succinate pre-treatment, or overexpression) is reported as “sufficient to abrogate hypoxia-dependent copy gain of 1q12h”. For the same molecule, the “hypoxia-induced 1q12h copy number gains” value ([3]; 4% oxygen, transfection or 2 mM succinate for 24 hours) was “antagonized”.

With COc1cccc2c1C(=O)c1c(O)c3c(c(O)c1C2=O)C[C@@](O)(C(=O)CO)C[C@@H]3O[C@H]1C[C@H](N)[C@H](O)[C@H](C)O1 [doxorubicin] the “p53 stabilization and p53 target gene activation” value (p53) was “resulted in stabilization of p53 and activation of p53 target genes” and the “apoptosis (percent Annexin V positive cells)” value (RPE cells [1]) was “could induce apoptosis in both CTRL and KDM4A cells”.

COc1ccc(-c2ccc3c(N4CCOC[C@@H]4C)nc(N4CCOC[C@@H]4C)nc3n2)cc1CO [AZD8055] was tested, and the “drug sensitivity of KDM4A shRNA cells vs control vector (MTT)” value (HEK 293T cells [4]) was “more sensitive”.

B1: KDM4A SNP-A482: KDM4A germline variant E482A (protein)
chain: MASESETLNPSARIMTFYPTMEEFRNFSRYIAYIESQGAHRAGLAKVVPPKEWKPRASYDDIDDLVIPAPIQQLVTGQSGLFTQYNIQKKAMTVREFRKIANSDKYCTPRYSEFEELERKYWKNLTFNPPIYGADVNGTLYEKHVDEWNIGRLRTILDLVEKESGITIEGVNTPYLYFGMWKTSFAWHTEDMDLYSINYLHFGEPKSWYSVPPEHGKRLERLAKGFFPGSAQSCEAFLRHKMTLISPLMLKKYGIPFDKVTQEAGEFMITFPYGYHAGFNHGFNCAESTNFATRRWIEYGKQAVLCSCRKDMVKISMDVFVRKFQPERYKLWKAGKDNTVIDHTLPTPEAAEFLKESELPPRAGNEEECPEEDMEGVEDGEEGDLKTSLAKHRIGTKRHRVCLEIPQEVSQSELFPKEDLSSEQYEMTECPAALAPVRPTHSSVRQVEDGLTFPDYSDSTEVKFEELKNVKLEEEDEEEEQAAAALDLSVNPASVGGRLVFSGSKKKSSSSLGSGSSRDSISSDSETSEPLSCRAQGQTGVLTVHSYAKGDGRVTVGEPCTRKKGSAARSFSERELAEVADEYMFSLEENKKSKGRRQPLSKLPRHHPLVLQECVSDDETSEQLTPEEEAEETEAWAKPLSQLWQNRPPNFEAEKEFNETMAQQAPHCAVCMIFQTYHQVEFGGFNQNCGNASDLAPQKQRTKPLIPEMCFTSTGCSTDINLSTPYLEEDGTSILVSCKKCSVRVHASCYGVPPAKASEDWMCSRCSANALEEDCCLCSLRGGALQRANDDRWVHVSCAVAILEARFVNIAERSPVDVSKIPLPRFKLKCIFCKKRRKRTAGCCVQCSHGRCPTAFHVSCAQAAGVMMQPDDWPFVVFITCFRHKIPNLERAKGALQSITAGQKVISKHKNGRFYQCEVVRLTTETFYEVNFDDGSFSDNLYPEDIVSQDCLQFGPPAEGEVVQVRWTDGQVYGAKFVASHPIQMYQVEFEDGSQLVVKRDDVYTLDEELPKRVKSRLSVASDMRFNEIFTEKEVKQEKKRQRVINSRYREDYIEPALYRAIME
modifications: left off: large carriers; small tags and cut ends
notes: KDM4A germline variant E482A
In the case of B1, the “rescue of increased sensitivity to AZD8055 due to KDM4A depletion (doubling time 5h-35h)” value (HEK 293T cells [5]; shRNA KDM4A plus non targetable GFP-KDM4A constructs) is reported as “does not”, the “rescue of increased sensitivity to Rapamycin of KDM4A depleted cells (doubling time 5h-35h)” value (HEK 293T cells [5]; shRNA KDM4A plus shRNA-resistant GFP-KDM4A constructs) is reported as “does not” and the “H3K36me3 and H3K9me3 catalytic activities” value (H3K36me3) is reported as “did not appear to be altered”.
